The text below walks through data of patent US20070098649A1, “Method and composition for controlling oral pathogens” (priority 2004, published 2007).

Assay [1] concerns S. aureus, E. coli, P. aeruginosa, and S. sanguis. The settings on record: isolated from H. canadensis; cited from earlier work.
Assay [2] concerns Pseudomonas aeruginosa. Description: MIC microdilution assay. The format is cell-based. The settings on record: P. aeruginosa; agent alone. For orientation: Broth dilution looks for growth in wells or tubes with falling amounts of substance.
The test system of assay [3] is Pseudomonas aeruginosa. Description: Combination determination (FIC, MIC in combination). The conditions noted are these: P. aeruginosa. The format is cell-based. Here is the method: (§1) The alkaloids were tested in pair-wise combinations (fractional inhibitory concentrations, FIC) against all the bacteria to determine whether interactions were antagonistic (FIC>1), additive (0.5<FIC<1), or synergistic (FIC<0.5). The FIC was calculated by the following: (MIC Acombination/MIC Aalone)+(MIC Bcombination/MIC Balone). Where A represents compound 1 and B represents compound 2. […] In the case of A. actinomycetemcomitans and P. aeruginosa, CHX was used at 0.78 to 50 μg ml^−1. Berberine (B-CG and B-S) was used at concentrations 0.9 to 250 μg ml^−1. The antibacterial efficacy of berberine (1.95 to 500 μg ml^−1) was tested in combination against P. aeruginosa with CHX (0.78 to 50 μg ml^−1) (Sigma Chemicals) and the polymyxin antibiotic Col (0.04 to 25 μg ml^−1) (Sigma Chemicals). The plates were incubated for 24 hours.

The test system of assay [4] is Streptococcus mutans. As to the kind of experiment: MIC microdilution assay. The format is cell-based. The settings on record: for MIC: Streptococcus mutans; for MIC of Goldenseal Alkaloids Against Selected Oral Pathogens: Sm.
Assay [5] relates to Actinobacillus actinomycetemcomitans. As to the kind of experiment: MIC microdilution assay. The format is cell-based. The conditions noted are these: for MIC: Aggregatibacter actinomycetemcomitans; for MIC of Goldenseal Alkaloids Against Selected Oral Pathogens: Aa.
For assay [6], the system named is Porphymonas gingivalis. As to the kind of experiment: MIC microdilution assay. The format is cell-based. The conditions noted are these: for MIC: Porphyromonas gingivalis; for MIC of Goldenseal Alkaloids Against Selected Oral Pathogens: Pg.
Assay [7] relates to Streptococcus gordonii. Description: MIC microdilution assay. The format is cell-based. The settings on record: for MIC of Goldenseal Alkaloids Against Selected Oral Pathogens: Sg; for MIC: Streptococcus gordonii.
For assay [8], the system named is Fusobacterium nucleatum. As to the kind of experiment: MIC microdilution assay. The format is cell-based. The conditions noted are these: for MIC of Goldenseal Alkaloids Against Selected Oral Pathogens: Fn; for MIC: Fusobacterium nucleatum.
A further assay deals with test bacteria. As to the kind of experiment: MIC microdilution assay, statements on all test bacteria. The format is cell-based. The settings on record: read-out: Concentration without growth inhibition of the test bacteria (MIC bound).
The test system of assay [9] is Escherichia coli. Description: MIC microdilution assay. The format is cell-based. The conditions noted are these: E. coli, agent alone, read-out: MIC of the antimicrobial agents alone.
In assay [10] the test system is Staphylococcus aureus. Description: MIC microdilution assay. The settings on record: S. aureus, agent alone, read-out: MIC of the antimicrobial agents alone. The format is cell-based.
For assay [11], the system named is Streptococcus mutans. Description: Combination determination (FIC, MIC in combination). The format is cell-based. The conditions noted are these: S. mutans; berberine (B-CG) combined with CHX, Tet or Dox; MIC of the named agent in the combination. On the procedure:
as §1
CHX was diluted from left to right at 10 to 0.08 μg ml^−1 ([…] 1 to 8), berberine was diluted from top to bottom at 250 to 0.09 μg ml^−1 ([…] 1 to 8). Column 9 was the cell control, column 10 was berberine alone (250 to 0.09 μg ml^−1); and column 11 was CHX alone (10 to 0.08 μg ml^−1). Row H was the solvent control (8% DMSO, H1 to H8). Column 12 was the media blank. The dilution assay was designed such that A1 contained the highest concentration of both agents (berberine 250 μg ml^−1 and CHX 10 μg ml^−1). The final concentration of berberine in wells A2 to A8 was […]. The FIC value was calculated from well C6. FIC was calculated by: (MIC Acombination/MIC Aalone)+(MIC Bcombination/MIC Balone).

Assay [12] has as its system Actinobacillus actinomycetemcomitans. The assay is described as above. The format is cell-based. The settings on record: A. actinomycetemcomitans grown under anaerobic conditions; berberine (B-CG) combined with CHX, Tet or Dox; MIC of the named agent in the combination. On the procedure: as §1
Assay [13] relates to Escherichia coli. Described as above. The format is cell-based. The settings on record: E. coli. Here is the method:
as §1

Assay [14] has as its system Fusobacterium nucleatum. Described as above. The format is cell-based. The settings on record: F. nucleatum; berberine (B-CG) combined with CHX, Tet or Dox; MIC of the named agent in the combination. On the procedure:
as §1

Assay [15] has as its system Porphymonas gingivalis. The description is as above. The format is cell-based. The conditions noted are these: P. gingivalis; berberine (B-CG) combined with CHX, Tet or Dox; MIC of the named agent in the combination. Here is the method:
as §1

Assay [16] deals with Staphylococcus aureus. The assay is described as above. The format is cell-based. The conditions noted are these: S. aureus. On the procedure: as §1
Assay [17] deals with Streptococcus gordonii. Described as above. The format is cell-based. The conditions noted are these: S. gordonii; berberine (B-CG) combined with CHX, Tet or Dox; MIC of the named agent in the combination. Here is the method: as §1
The test system of another assay is oral pathogens. Description: Combination determination, statements on the oral pathogens. The format is cell-based. The conditions noted are these: berberine hydrochloride / berberine (B-CG and B-S). On the procedure: as §1
Setting [18] is: read-out: MIC of Goldenseal Alkaloids Against Selected Oral Pathogens.
The mark [19] stands for this setting: berberine (B-CG) combined with CHX, Tet or Dox, MIC of the named agent in the combination.
[20] abbreviates: berberine hydrochloride / chloride.

Structures can show the parent of a compound that is named as a salt. Where two headings read alike, the source gives them in different places. Marks after values point to notes of the source that are not given here. Where only a bound is given, the exact number is not on record here.

On to `COc1ccc2c(c1OC)C(=O)O[C@@H]2[C@H]1c2cc3c(cc2CCN1C)OCO3` [β-hydrastine], for which the Antibacterial activity result in assay [1] is “inactive against all the tested organisms”.
colistin sulfate: the “MIC of the antimicrobial agents alone” value in the assay on Pseudomonas aeruginosa [2] was 3.13 µg/mL. For the same molecule, in the assay on Pseudomonas aeruginosa [3], the “Interaction when combined with berberine” value is given as “no clear additive or synergistic effect”. Also, the “MIC of the antimicrobial agents in combination” value (shortened to “MIC … in combination”) in the assay on Pseudomonas aeruginosa [3] (berberine combined with CHX or Col, MIC of the named agent in the combination) is 1.56 µg/mL.
As to `COc1ccc2cc3[n+](cc2c1O)CCc1cc2c(cc1-3)OCO2` [berberrubine], the “Concentration without growth inhibition (MIC bound)” value in the assay with Streptococcus mutans [4] (S. mutans, growth hindered, but not inhibited at lower concentrations) is listed as “greater than 300 μml^−1”. Further, the MIC in the assay with Streptococcus mutans [4] (S. mutans, growth limited but not inhibited at lower concentrations, text b118, read-out: Concentration without growth inhibition (MIC bound)) is greater than 300 µg/mL; in assay [5] (A. actinomycetemcomitans, read-out: Concentration without growth inhibition (MIC bound)), greater than 300 µg/mL; with Porphymonas gingivalis [6] (P. gingivalis, comparable to berberine, read-out: MIC) it was 17 µg/mL. Moreover, the “Concentration without antimicrobial activity (MIC bound)” value in [5] (A. actinomycetecomitans) is on record as no less than 300 μml^−1.
Turning to `COc1cc2c(cc1O)[C@@H]1Cc3ccc(OC)c(OC)c3CN1CC2` [Isocorypalamine, isocorypalmine], the “MIC of Goldenseal Alkaloids Against Selected Oral Pathogens” value (in the assay on Streptococcus mutans [4] (S. mutans); with Streptococcus gordonii [7] (S. gordonii); in assay [5] (A. actinomycetemcomitans); in the assay with Fusobacterium nucleatum [8] (F. nucleatum); in the assay with Porphymonas gingivalis [6] (P. gingivalis)) was greater than 125 µg/mL throughout.
Consider `COc1ccc(C[C@@H]2c3cc4c(cc3CCN2C)OCO4)c(C=O)c1OC` [Canadaline, canadaline], for which the “MIC of Goldenseal Alkaloids Against Selected Oral Pathogens” value (in the assay on Streptococcus mutans [4] (S. mutans); in the assay with Streptococcus gordonii [7] (S. gordonii); in assay [5] (A. actinomycetemcomitans); with Fusobacterium nucleatum [8] (F. nucleatum); in the assay with Porphymonas gingivalis [6] (P. gingivalis)) was greater than 250 µg/mL each time. In assay [1], the Antibacterial activity result is given as “antimicrobial at comparable concentrations to berberine”.
Regarding `COc1ccc2c(c1OC)CN1CCc3cc4c(cc3[C@@H]1C2)OCO4` [Canadine, canadine], the MIC in the assay with Streptococcus mutans [4] (setting [18]) is greater than 500 µg/mL; with Streptococcus gordonii [7] (setting [18]), greater than 500 µg/mL; in [5] (setting [18]), greater than 500 µg/mL; with Fusobacterium nucleatum [8] (setting [18]), greater than 500 µg/mL; in the assay with Porphymonas gingivalis [6] (setting [18]) it was greater than 500 µg/mL; with test bacteria, greater than 250 µg/mL. Moreover, the Antibacterial activity entry in assay [1] is “antimicrobial at comparable concentrations to berberine”.
Consider `COc1ccc2c(c1OC)C(=O)O[C@@H]2[C@H]1c2cc3c(cc2CCN1C)OCO3` [Hydrastine, hydrastine], for which the MIC (in the assay on Streptococcus mutans [4] (setting [18]); with Streptococcus gordonii [7] (setting [18]); in assay [5] (setting [18]); in the assay with Fusobacterium nucleatum [8] (setting [18]); in the assay on Porphymonas gingivalis [6] (setting [18]); in the assay on test bacteria) was greater than 500 µg/mL throughout.
Regarding `CN(C)[C@@H]1C(O)=C(C(N)=O)C(=O)[C@@]2(O)C(O)=C3C(=O)c4c(O)cccc4[C@@](C)(O)[C@H]3C[C@@H]12` [Tet, tetracycline HCl], the MIC in the assay on Streptococcus mutans [4] (S. mutans, agent alone, read-out: MIC of the antimicrobial agents alone) worked out at 1.56 µg/mL; with Streptococcus gordonii [7] (S. gordonii, agent alone, read-out: MIC of the antimicrobial agents alone) it was 0.31 µg/mL; in [5] (A. actinomycetemcomitans grown under anaerobic conditions, agent alone, read-out: MIC of the antimicrobial agents alone), 25 µg/mL; with Fusobacterium nucleatum [8] (F. nucleatum, agent alone, read-out: MIC of the antimicrobial agents alone) it was 0.16 µg/mL; in the assay with Porphymonas gingivalis [6] (P. gingivalis, agent alone, read-out: MIC of the antimicrobial agents alone), 0.08 µg/mL; in the assay on Escherichia coli [9], 3.06 µg/mL. The MIC with Staphylococcus aureus [10] is 1.53 µg/mL. In addition, the “MIC … in combination” value with Streptococcus mutans [11] is 0.20 µg/mL; in assay [12] it was 12.5** μg ml^−1; in the assay on Escherichia coli [13] (setting [19]) it was 1.53 µg/mL; with Fusobacterium nucleatum [14], 0.02 µg/mL; in the assay with Porphymonas gingivalis [15], 0.01 µg/mL; with Staphylococcus aureus [16] (setting [19]), 0.39 µg/mL. Further, in the assay on Streptococcus gordonii [17], the “MIC … in combination” value stood at 0.08 µg/mL. The “Growth inhibition effect when combined with berberine” value in the assay on Escherichia coli [13] (setting [20]), in the assay with Staphylococcus aureus [16] (setting [20]) and in the assay with oral pathogens was “synergistic” throughout.
